Measured values taken from ChEMBL document CHEMBL1157273, “Sphaeric acid, a new succinic acid derivative from a Sphaeropsis sp” (J Nat Prod, 1999).
The source made the active and inactive calls. No cut-off for these calls is given here.

Key:
Candida albicans = test: Antimicrobial activity against Candida albicans by disk diffusion assay; type: functional, organism-based
Pseudomonas aeruginosa = test: Antimicrobial activity against Pseudomonas aeruginosa by disk diffusion assay; type: functional, organism-based
Aspergillus niger = test: Antimicrobial activity against Aspergillus niger by disk diffusion assay; type: functional, organism-based
Geotrichum candidum = test: Antimicrobial activity against Geotrichum candidum by disk diffusion assay; type: functional, organism-based
Escherichia coli = test: Antimicrobial activity against Escherichia coli by disk diffusion assay; type: functional, organism-based
Fusarium oxysporum = test: Antimicrobial activity against Fusarium oxysporum by disk diffusion assay; type: functional, organism-based
Artemia salina = test: Toxicity in Artemia salina after 24 hrs; type: organism-based; conditions: in vivo

**Q.** Which results are given for `CCCCCCCC[C@H](C(=O)O)[C@H](C)C(=O)O` [SPHAERIC ACID]?
**A.** Activity (Candida albicans): inactive; Activity (Pseudomonas aeruginosa): inactive; Activity (Aspergillus niger): inactive; Activity (Geotrichum candidum): inactive; Activity (Escherichia coli): inactive; Activity (Fusarium oxysporum): inactive; Activity (Artemia salina): Non-toxic
